Experimental data as given in patent US5053399A, “Myo-inositol analogs and methods for their use” (University of Pittsburgh, priority 1990, dated 1991).

Columns and labels:
[1] = biological target: T1, myo-inositol transporter (Rattus norvegicus, UniProt Q80WA5); experiment: [3H]myo-inositol uptake by the myo-inositol transporter in PC12 cells; type: cell-based; conditions: for Maximal Transport Rate Vmax: in presence of fixed 1 mM analog
T1 construct: PC12 cells were gently detached and maintained in a suspension culture; endogenous in cells; host or cells: PC12
T1 sequence (Q80WA5 1-718): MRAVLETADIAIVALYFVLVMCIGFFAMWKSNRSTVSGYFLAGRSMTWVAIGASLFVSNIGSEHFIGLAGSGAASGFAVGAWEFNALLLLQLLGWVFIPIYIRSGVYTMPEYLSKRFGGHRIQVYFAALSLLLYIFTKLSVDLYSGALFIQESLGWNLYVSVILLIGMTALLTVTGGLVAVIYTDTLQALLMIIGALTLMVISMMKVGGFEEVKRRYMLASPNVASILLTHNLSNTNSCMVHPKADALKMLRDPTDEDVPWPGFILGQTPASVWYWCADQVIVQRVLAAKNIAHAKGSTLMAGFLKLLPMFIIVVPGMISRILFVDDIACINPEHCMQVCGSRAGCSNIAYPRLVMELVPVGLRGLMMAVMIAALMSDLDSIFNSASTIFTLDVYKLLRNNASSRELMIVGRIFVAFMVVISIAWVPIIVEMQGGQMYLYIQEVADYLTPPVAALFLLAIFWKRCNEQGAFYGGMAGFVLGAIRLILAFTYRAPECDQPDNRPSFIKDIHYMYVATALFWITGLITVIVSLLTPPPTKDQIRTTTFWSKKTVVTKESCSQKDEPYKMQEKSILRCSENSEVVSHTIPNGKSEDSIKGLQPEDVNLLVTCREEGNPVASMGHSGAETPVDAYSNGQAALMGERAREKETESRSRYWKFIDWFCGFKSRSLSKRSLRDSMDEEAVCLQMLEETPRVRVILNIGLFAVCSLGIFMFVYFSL
Experimental: To determine if the effect of the fluoro-myo-inositol analogs might be mediated by the blockade of the myo-inositol transporter, which is responsible for uptake and accumulation of myo-inositol into the cell, the ability of these two compounds to block [^3 H]myo-inositol transport was studied directly.
The uptake of [^3 H]myo-inositol by the myo-inositol transporter was determined as follows: PC12 cells were gently detached and maintained in a suspension culture in RPMI medium (both myo-inositol and serum free) at 37° C. [^3 H]myo-inositol was added to this culture at a concentration of 1μCi/ml. Aliquots of this suspension were removed at the indicated time, diluted in 10 volumes of ice-cold PBS containing 10 mM unlabelled myo-inositol to stop the uptake process, centrifuged at 4° C. for 20 minutes at 50xg. The cell pellet, which contained the transported [^3 H]myo-inositol, was dissolved in dilute NaOH and the radioactivity quantified by liquid scintillation counting.
The […] and Vmax of myoinositol were determined from LineweaverBurke plots
of the uptake of [^3 H]myoinositol (25 nM) in the presence of
increasing concentrations of unlabeled myoinositol in PC12 cells. The Ki
of the two fluoromyo-inositol analogs was determined by conducting the
uptake studies in the presence of a fixed concentration (1 mM) of each

[2] = tested on: PC12 cells; experiment: Uptake and incorporation of [3H]myo-inositol into PC12 cells following treatment with inositol analogs; type: cell-based, rat
Experimental: Since myo-inositol must be incorporated into the cellular plasma membranes in order for it to serve its role as a second messenger, we therefore verified the ability of the 1- and 3-fluoro-myo-inositol analogs to perturb the incorporation of myo-inositol into cellular plasma membranes by the enzyme CDP-diacylglycerol-inositol phosphatidyltransferase (phosphatidylinositol synthetase).
These tests were conducted by treating cells for either 1, 3, 5, or 7 days with the myo-inositol analogs, followed by a brief exposure to radiolabeled myo-inositol ([^3 H]myo-inositol). The extent of incorporation of tritiated myo-inositol would, therefore, reflect the extent to which phosphatidylinositol and its phosphorylated analogs are deficient in the cellular plasma membranes.
Cells were grown as described hereinabove. Twenty-four hours after plating, the medium was changed and cells were exposed to either inositol free medium (Control 2) or medium containing either the 1- or the 3-fluoro-myo-inositol analog. […] Samples from both the pellet and supernatant were then obtained and the levels of radioactivity in each were determined. Radioactivity in the supernatant corresponded to the amount of free [^3 H]myo-inositol in the cytoplasm of the cell, whereas the radioactivity present in the TCA-precipated pellet represented [^3 H]myo-inositol incorporated into the cellular plasma membranes. […]

[3] = tested on: PC12 cells; experiment: Cell growth inhibition in PC12 cells (cell counts; dose response and time course); type: cell-based, rat; conditions: dose response
Experimental: The biological effects of the 3-fluoro and 1-fluoro myo-inositol analogs were tested in PC12 cells, a cell line derived from a rat pheochromocytoma, which has been widely used to study the effects of various growth factors and differentiation promoters as further described by Green, L. A., et al., Adv. Cell Neurobiol., 3, 373-414, (1982), the disclosure of which is incorporated herein by reference.
PC12 cells were seeded at a density of 3.3×10^5 cells/cm^2 in plastic culture dishes and grown at 37° C. in a humidified atmosphere of 95% air/5% CO2. The basal medium used in these experiments was RPMI-1640 medium (Gibco). In some experiments a specially formulated inositol-free RPMI-1640 medium (Gibco) was used. This basal medium was supplemented with either normal or extensively dialyzed horse serum (10%) and fetal calf serum (5%) (Gibco). […]
A dose-response study was performed by growing cells in the presence of certain concentrations of the 3-fluoro and the 1-fluoro-myo-inositol analogs. At the end of five days, the cells were counted by the means described hereinabove.
The time course effect on cell replication was then examined, using the concentration of 1-fluoro and 3-fluoro myo-inositol analogs determined to have maximal effects in the dose response study of Table 1. […]

[4] = tested on: PC12 cells; experiment: Effects of fluoroinositol treatment on cell size (protein per cell, Lowry); type: cell-based, rat
Text: As cells grow in culture, the size of an individual cell varies in a fairly predictable way. The size of a cell can be expressed as the amount of protein present per cell. […] Immediately after mitosis, the cell size drops considerably, frequently to levels approximately half of the pre-mitotic level.
By investigating the size of a cell, it is possible to determine at which point within the cell cycle inhibitors of cell replication are exerting their effects. Accordingly, we investigated the effect of the 1- and 3-fluoro-myo-inositol analogs on the size of cells chronically treated with such analogs.
Cells were grown and treated with 1- and 3-fluoro-myo-inositol analogs as described in Example XIII. On the days indicated, cells were gently harvested without disruption, and the number of cells counted in triplicate in a cell counting chamber. Following determination of the number of cells per sample, the remainder of the cells were pelleted in a microcentrifuge as described hereinabove, and the protein in the sample was determined by the method of Lowry. Thus, it was possible to derive from these two data sets the amount of protein per cell, which is expressed as nanograms of protein per cell, as indicated in Table 3: […]

Maximal Transport Rate Vmax [1] | Affinity Constant K (Ka) ([1]; Lineweaver-Burke plots, [3H]myo-inositol 25 nM with increasing unlabeled myo-inositol) | SMILES | level of radioactively-labeled myo-inositol incorporated into the cellular plasma membranes ([2]; PC12 cells, result in words) | potency in inhibiting cell replication relative to the 3-fluoro-myo-inositol analog [3] | potency in inhibiting cell replication relative to the 3-fluoro-myo-inositol analog ([3]; listed as I-fluoro-myo-inositol analog) | plateau of protein per cell relative to protein levels on day one [4] | increase in the number of unoccupied sites for myo-inositol in the cellular plasma membranes ([2]; after several days of exposure)
2.27 nmol/mg/h |  | O[C@@H]1[C@@H](O)[C@H](O)[C@@H](F)[C@@H](O)[C@H]1O [3-deoxy-3-fluoroinositol, 3-deoxy-3-fluoro-myo-inositol] | quite low |  |  |  | 
 | 45 µM | O[C@H]1[C@H](O)[C@@H](O)[C@H](O)[C@@H](O)[C@H]1O [Myo-inositol, myo-inositol] |  |  |  |  | 
2.27 nmol/mg/h |  | O[C@@H]1[C@@H](O)[C@@H](O)[C@@H](F)[C@H](O)[C@H]1O [1-deoxy-1-fluoroinositol, 1-deoxy-1-fluoro-myo-inositol] |  | about five-fold more potent | 5 fold | approximately twice | 10 fold
